Among the data in patent US6613769B1, “Tryptase inhibitors” (Max-Planck-Gesellschaft zur Föderung der Wissenschaften. …, priority 1998, dated 2003) are Ki values, retold here.

The experiment addresses T1, human tryptase (Homo sapiens, UniProt P20231).
T1 construct: from tissue; host or cells: human lung tissue
The experiment can be described thus: Inhibition of human tryptase: cleavage of chromogenic substrate tos-Gly-Pro-Arg-pNA, equilibrium conditions. It is filed as biochemical. As to conditions: tryptase from human lung tissue; 50 μg of heparin/ml; in the presence of substrate tos-Gly-Pro-Arg-pNA, 405 nm; read-out: Kiapp (apparent dissociation constant). The source says:
The documented pathophysiological effects of mast cell tryptase are brought about directly by the enzymic activity of the protease. Accordingly, they are reduced or blocked by inhibitors which inhibit the enzymatic activity of the tryptase. The equilibrium dissociation constant Ki of the enzyme-inhibitor complex is a suitable measure of the affinity of a reversible inhibitor for the target protease. This Ki value can be determined by measuring the effect of the inhibitor on the tryptase-induced cleavage of a chromogenic peptide-p-nitroanilide substrate.
The dissociation constants of the tryptase-inhibitor complexes are determined under equilibrium conditions in accordance with the general recommendations of Bieth (Bieth JG, Pathophysiological interpretation of kinetic constants of protease inhibitors, Bull. Europ. Physiopath. Resp. 16:183-195, 1980) and the methods of Sommerhoff et al. (Sommerhoff CP et al., A. Kazal-type inhibitor of human mast cell tryptase: Isolation from the medical leech Hirudo medicinalis, characterization, and sequence analysis, Biol. Chem. Hoppe-Seyler 375: 685-694, 1994).
Human tryptase is prepared in a pure state from lung tissue; the specific activity of the isolated protease, determined by means of titration, is normally 85% of the theoretical value. Constant quantities of tryptase are incubated with increasing quantities of the inhibitors in the presence of 50 μg of heparin/ml for stabilizing the protease. After the equilibrium has been established between the reaction partners, the remaining enzyme activity is determined after adding the peptide-p-nitroanilide substrate tos-Gly-Pro-Arg-pNA, the cleavage of which is monitored at 405 nm over a period of 3 min. Alternatively, the residual enzymic activity can also be determined using fluorogenic substrates. The apparent dissociation constants Kiapp (i.e. in the presence of substrate) are subsequently ascertained by nonlinear regression by fitting the enzyme rates to the general equation for reversible inhibitors (Morrison JF, Kinetics of the reversible inhibition of enzyme-catalysed reactions by tight-binding inhibitors, Biochim. Biophys. Acta 185, 269-286, 1969):
V1/V0=131 {Et+lt+Kiapp−[(Et+lt+Kiapp)^2−4Etlt]^½}/2Et
In this equation, V1, and V0 are the rates in the presence and absence of the inhibitor, respectively, and Et and lt are the concentrations of the tryptase and of the inhibitor.
The apparent dissociation constants which were determined for the compounds according to the invention are given in Table A below, in which the numbers of the compounds correspond to the numbers of the compounds in the examples.

Where a name gives a salt, the structure may show the parent alone.

T1 sequence (P20231 31-275): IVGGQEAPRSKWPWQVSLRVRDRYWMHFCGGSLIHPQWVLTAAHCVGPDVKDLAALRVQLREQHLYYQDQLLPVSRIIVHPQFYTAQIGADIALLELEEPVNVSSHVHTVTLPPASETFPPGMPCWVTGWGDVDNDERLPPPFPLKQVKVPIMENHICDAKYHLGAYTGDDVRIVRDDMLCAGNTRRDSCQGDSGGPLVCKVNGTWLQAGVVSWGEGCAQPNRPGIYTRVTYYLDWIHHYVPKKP

As for `NCC1CCC(C(=O)NC2CCN(C(=O)c3cccc(C(=O)N4CCC(NC(=O)C5CCC(CN)CC5)CC4)n3)CC2)CC1` (stereo not drawn) [Compound 15, Pyridine-2,6-dicarbobis[4-(4-aminomethylcyclohexyl-carbonylamino)-1-piperidide]], the Ki turned out to be 3000 nM.

For the compound `NCc1cccc(C(=O)NC2CCN(C(=O)c3cccc(C(=O)N4CCC(NC(=O)c5cccc(CN)c5)CC4)n3)CC2)c1` [Compound 11, Pyridine-2,6-dicarbobis[4-(3-aminomethylbenzoylamino)-1-piperidide]], the Ki was determined as 30 nM.

Consider `NCc1cccc(C(=O)N2CCN(C(=O)c3cccc(C(=O)N4CCN(C(=O)c5cccc(CN)c5)CC4)n3)CC2)c1` [Compound 1, Pyridine-2,6-dicarbobis[4-(3-aminomethylbenzoyl)-1-piperazide]], for which the Ki came to 3000 nM.

Regarding `CC(C)(c1ccc(OCC(=O)NCC(=O)NCCCCN)cc1)c1ccc(OCC(=O)NCC(=O)NCCCCN)cc1` [Compound 34, 2,2-bis-[4-(10-Amino-3,6-diaza-2,5-dioxodecyloxy)-phenyl]propane Dihydrochloride], the Ki came to 2000 nM.

As to `CC(C)(c1ccc(OCC(=O)NCc2ccc(NC(=N)N)cc2)cc1)c1ccc(OCC(=O)NCc2ccc(NC(=N)N)cc2)cc1` [Compound 31, 2,2-bis-[4-(4-Guanidinylbenzylamino)carbonylmethoxy-phenyl]propane Dihydroacetate], the Ki was determined as 200 nM.

Turning to `NCC1CCC(C(=O)N2CCN(C(=O)Nc3ccc(Oc4ccc(NC(=O)N5CCN(C(=O)C6CCC(CN)CC6)CC5)cc4)cc3)CC2)CC1` (stereo not drawn) [Compound 17, bis{4-[4-(4-Aminomethyl)cyclohexanoylpiperazin-1-yl-]-carbonyl}-4,4′-diaminodiphenyl Ether Dihydrochloride], the Ki is 22000 nM.

As for `CC(C)(c1ccc(OC(=O)N2CCN(C(=O)NCc3ccc(CN)cc3)CC2)cc1)c1ccc(OC(=O)N2CCN(C(=O)NCc3ccc(CN)cc3)CC2)cc1` [Compound 36, 2,2-bis-(4-[4-(4-Aminomethylbenzylcarbamoyl)-1-piperazinylcarbonyloxy]phenyl)propane Dihydrochloride], the Ki came to 28 nM.

For `NCC1CCC(C(=O)NC2CCN(C(=O)NC3CCC(CC4CCC(NC(=O)N5CCC(NC(=O)C6CCC(CN)CC6)CC5)CC4)CC3)CC2)CC1` (stereo not drawn) [Compound 23, di{4-[4-(4-Aminomethyl)cyclohexanoylamino]piperidin-1-ylcarbamoyl}cyclohexylmethane Dihydrochloride], the Ki turned out to be 800 nM.

As for `NCc1cccc(C(=O)N2CCN(C(=O)Nc3ccc(Oc4ccc(NC(=O)N5CCN(C(=O)c6cccc(CN)c6)CC5)cc4)cc3)CC2)c1` [Compound 21, Bis{4-[4-(3-Aminomethyl)benzoylpiperazin-1-yl]-carbonyl}-4,4′-diaminodiphenyl Ether Dihydrochloride], the Ki is 100 nM.
